From patent publication US20220211795A1 (Chenland Nutritionals Inc., priority 2021, published 2022)

Assays:
[1] = Potential detection (zeta potential); type: physicochemical
glioma GL261 cells = test: Cytotoxicity experiment (CCK8); type: cell-based; conditions: 1.172-150 μg/mL, 4 h drug then 20 h culture
Experimental: Gl261 cells in logarithmic growth phase are uniformly inoculated into sterile 96-well plates with 2×10^3 cells per well, and no cells are seeded around the plates, then 100 μL […] is added into each well and cultured under the condition of 37° C. and 5% CO2 for 24 h; remove the culture medium and add 100 μL of drug-containing medium (concentration gradient set at […], 75.000 μg/mL, 37.500 μg/mL, 18.750 μg/mL, 9.375 μg/mL, 4.688 μg/mL, 2.344 μg/mL, and 1.172 μg/mL), the drug-containing medium is removed after culture for 4 h, and 100 μL of medium is added to each well for further culture for 20 h. The culture medium is removed, and culture medium containing 10% CCK8 is added. After incubation for 1 h, the absorbance is measured with a microplate reader, and the cell viability is determined by the following formula […].

Particle size detection = type: physicochemical
Source text: 1.2 Particle Size Detection

Average zeta potential [1]: −36.5 mv
PDI (Particle size detection): 0.545
Hydrodynamic diameter (Particle size detection; 0.0309 g curcumin+10 ml water suspension): 4.053 μm
Compound: COc1cc(/C=C/C(=O)CC(=O)/C=C/c2ccc(O)c(OC)c2)ccc1O [Free Curcumin, Curcumin]
toxicity to GL261 cells (glioma GL261 cells): no obvious toxicity
